Source: US7105501B2, “Compositions with vascular damaging activity” (Angiogene Pharmaceuticals Ltd., priority 2000, dated 2006)

Assays:
CaNT tumour vasculature = assay: Activity against tumour vasculature measured by fluorescent dye (Hoechst 33342 functional vascular volume); format: in vivo; conditions: CaNT tumour-bearing mice, 24 hours after drug treatment
Protocol: Activity Against Tumour Vasculature Measured by Fluorescent Dye.
Tumour functional vascular volume in CaNT tumour-bearing mice was measured using the fluorescent dye Hoechst 33342 according to the method of Smith et al (Brit J Cancer 57, 247-253, 1988). At least three animals were used in control and treated groups. The fluorescent dye was dissolved in saline at 6.25 mg/ml and injected intravenously at 10 mg/kg 24 hours after drug treatment. One minute later, animals were killed and tumours excised and frozen; 10 μm sections were cut at 3 different levels and observed under UV illumination using an Olympus microscope equipped with epifluorescence. Blood vessels were identified by their fluorescent outlines and vascular volume was quantified using a point scoring system based on that described by Chalkley, (J Natl Cancer Inst, 4, 47-53, 1943). All estimates were based on counting a minimum of 100 fields from sections cut at the 3 different levels. The salts of the invention were more efficacious than their dihydrogen phosphate parent compounds.

CaNT tumours = assay: Induction of tumour necrosis, CaNT tumours; format: in vivo, Mice; conditions: tumours excised after 24 h, mean score 1-10, control 2.0
Protocol: (§1) Induction of Tumour Necrosis
(§2) Mice bearing either CaNT or SaS tumours were treated with the test compound and tumours excised after 24 h, fixed in formalin, embedded in paraffin, sectioned and stained with haematoxylin and eosin. Sections were scored based on the estimated area of necrosis as follows:
(§3) Control tumours had mean scores of 2.0 (CaNT) and 1.0 (SaS). The salts of the invention were more efficacious than their dihydrogen phosphate parent compounds.

SaS tumours = assay: Induction of tumour necrosis, SaS tumours; format: in vivo, Mice; conditions: tumours excised after 24 h, mean score 1-10, control 1.0
Protocol: as §1, §2, §3

SMILES | % Reduction in Vascular Volume (CaNT tumour vasculature; dose 50 mg/kg) [%] | Necrosis score (CaNT tumours; dose 50 mg/kg) | Necrosis score (SaS tumours; dose 100 mg/kg) | % Reduction in Vascular Volume (CaNT tumour vasculature; dose 100 mg/kg) [%] | Necrosis score (CaNT tumours; dose 100 mg/kg) | Necrosis score (SaS tumours; dose 500 mg/kg)
COC(=O)C(N)CCCNC(N)=N[N+](=O)[O-].COc1cc(/C=C\c2ccc(C)c(OP(=O)(O)O)c2)cc(OC)c1OC [Example 5, (Z)-2-methyl-5-[2-(3,4,5-trimethoxyphenyl)ethenyl]phenyl (1-methoxycarbonyl-4-N′-nitroguanidinobutylammonium) hydrogen phosphate] | 86 | 10.0 | – | – | – | –
COc1cc(/C=C\c2ccc(C)c(OP(=O)(O)O)c2)cc(OC)c1OC.NC(=N[N+](=O)[O-])NCCCC(N)C(=O)O [Example 2, (Z)-2-methyl-5-[2-(3,4,5-trimethoxyphenyl)ethenyl]phenyl (1-carboxy-4-N′-nitroguanidinobutylammonium) hydrogen phosphate] | 42 | 8.7 | 7.7 | – | – | –
COc1ccc(/C=C\c2cc(OC)c(OC)c(OC)c2)cc1OP(=O)(O)O [Combretastatin A4 phosphate, combretastatin A4 phosphate] | – | – | – | 26 | 5.0 | 1.4
COc1cc(/C=C\c2ccc(C)c(OP(=O)(O)O)c2)cc(OC)c1OC [(Z)-2-methyl-5-[2-(3,4-,5-trimethoxyphenyl)ethenyl]phenyl dihydrogen phosphate] | – | – | – | 28 | 5.3 | –
